{"source": "patent US6743419B1", "about": "“Method of reducing hair growth employing sulfhydryl active compounds” (The Gillette Company, priority 1992, dated 2004)", "key": {"[1]": {"tested_on": "hair growth", "experiment": "Inhibition of hair growth (hair mass, treated vs untreated site)", "format": "in vivo, hamster"}, "[2]": {"experiment": "Percent reduction in hair shaft cysteine (amino acid analysis of hamster flank organ hairs)", "format": "in vivo", "parameters": "concentration or dose not given beside the values"}, "[3]": {"experiment": "Formation of cysteine-mixed disulfide in vitro (incubation with cystine or cysteine, HPLC)", "details": "pH 7.4, 37° C."}, "[4]": {"experiment": "Reduction of cystine (generation of cysteine on incubation with cystine, HPLC)", "details": "37 C, pH 7.4"}, "[5]": {"experiment": "Formation of cysteine-mixed disulfide in hair shafts after topical treatment", "format": "in vivo, Golden Syrian hamsters", "details": "thirteen topical treatments over 18 days, flank organ"}}}
{"compound": "5′-Deoxy-5′-methylthioadenosine", "values": [{"measurement": "Hair Mass Percent Reduction", "setting": "[1]; Dose 10%, Vehicle A, topical", "result": "57 ± 6", "unit": "%"}, {"measurement": "Hair Mass Treated", "setting": "[1]; Dose 10%, Vehicle A, topical", "result": "1.25 ± 0.17", "unit": "mg"}, {"measurement": "Percent reduction in hair shaft cysteine", "setting": "[2]; hamster flank organ hairs", "result": 11, "unit": "%"}]}
{"compound": "O=C(O)CCCCC1CCSS1", "note": "(racemic) [DL-α-Lipoic acid (reduced form), DL-α-Lipoic acid]", "values": [{"measurement": "Hair Mass Percent Reduction", "setting": "[1]; Dose 5%, Vehicle B, topical", "result": "16 ± 5", "unit": "%"}, {"measurement": "Hair Mass Treated", "setting": "[1]; Dose 5%, Vehicle B, topical", "result": "2.67 ± 0.26", "unit": "mg"}, {"measurement": "Hair Mass Percent Reduction", "setting": "[1]; Dose 15%, Vehicle A, topical", "result": "56 ± 6", "unit": "%"}, {"measurement": "Hair Mass Treated", "setting": "[1]; Dose 15%, Vehicle A, topical", "result": "0.74 ± 0.09", "unit": "mg"}]}
{"compound": "O=S(=O)(O)CC(S)CS", "note": "(stereo not shown) [2,3,-Dimercapto-1-propanesulfonic acid]", "values": [{"measurement": "Hair Mass Percent Reduction", "setting": "[1]; Dose 20%, Vehicle A, topical", "result": "79 ± 3", "unit": "%"}, {"measurement": "Hair Mass Treated", "setting": "[1]; Dose 20%, Vehicle A, topical", "result": "0.64 ± 0.08", "unit": "mg"}, {"measurement": "Percent reduction in hair shaft cysteine", "setting": "[2]; hamster flank organ hairs", "result": 40, "unit": "%"}, {"measurement": "Formation of Cysteine mixed disulfide in-vitro", "setting": "[3]", "result": "YES"}, {"measurement": "Reduction of Cystine", "setting": "[4]", "result": "YES"}]}
{"compound": "NCCS", "note": "[2-Mercaptoethylamine (Cysteamine), 2-Mercaptoethylamine, reference compound]", "values": [{"measurement": "Hair Mass Percent Reduction", "setting": "[1]; Dose 20%, Vehicle A, topical", "result": "86 ± 3", "unit": "%"}, {"measurement": "Hair Mass Treated", "setting": "[1]; Dose 20%, Vehicle A, topical", "result": "0.30 ± 0.09", "unit": "mg"}, {"measurement": "Percent reduction in hair shaft cysteine", "setting": "[2]; hamster flank organ hairs", "result": 50, "unit": "%"}, {"measurement": "Formation of Cysteine mixed disulfide in-vitro", "setting": "[3]", "result": "YES"}, {"measurement": "Formation of Cysteine mixed disulfide in hair shaft", "setting": "[5]", "result": "YES"}, {"measurement": "Reduction of Cystine", "setting": "[4]", "result": "YES"}]}
{"compound": "CCCCCCCCCCCCOC(=O)CCSCCC(=O)OCCCCCCCCCCCC", "note": "[3,3′-Thiodipropionic acid dilauryl ester]", "values": [{"measurement": "Hair Mass Percent Reduction", "setting": "[1]; Dose 5%, Vehicle D, topical", "result": "30 ± 7", "unit": "%"}, {"measurement": "Hair Mass Treated", "setting": "[1]; Dose 5%, Vehicle D, topical", "result": "1.70 ± 0.21", "unit": "mg"}, {"measurement": "Hair Mass Percent Reduction", "setting": "[1]; Dose 20%, Vehicle D, topical", "result": "50 ± 4", "unit": "%"}, {"measurement": "Hair Mass Treated", "setting": "[1]; Dose 20%, Vehicle D, topical", "result": "1.07 ± 0.10", "unit": "mg"}]}
{"compound": "O=C(O)CCSCCC(=O)O", "note": "[3,3′-Thiodipropionic acid]", "values": [{"measurement": "Hair Mass Percent Reduction", "setting": "[1]; Dose 20%, Vehicle A, topical", "result": "73 ± 4", "unit": "%"}, {"measurement": "Hair Mass Treated", "setting": "[1]; Dose 20%, Vehicle A, topical", "result": "0.76 ± 0.12", "unit": "mg"}]}
{"compound": "CSCCCN", "note": "[3-(Methylthio)-propylamine]", "values": [{"measurement": "Hair Mass Percent Reduction", "setting": "[1]; Dose 2%, Vehicle A, topical", "result": "22 ± 13", "unit": "%"}, {"measurement": "Hair Mass Treated", "setting": "[1]; Dose 2%, Vehicle A, topical", "result": "0.97 ± 0.13", "unit": "mg"}]}
{"compound": "O=C(O)CCCSSCCCC(=O)O", "note": "[3-Carboxypropyl disulfide]", "values": [{"measurement": "Hair Mass Percent Reduction", "setting": "[1]; Dose 15%, Vehicle A, topical", "result": "74 ± 4", "unit": "%"}, {"measurement": "Hair Mass Treated", "setting": "[1]; Dose 15%, Vehicle A, topical", "result": "0.70 ± 0.14", "unit": "mg"}]}
{"compound": "C=CCSCC=C", "note": "[Allyl sulfide]", "values": [{"measurement": "Hair Mass Percent Reduction", "setting": "[1]; Dose 20%, Vehicle B, topical", "result": "17 ± 10", "unit": "%"}, {"measurement": "Hair Mass Treated", "setting": "[1]; Dose 20%, Vehicle B, topical", "result": "1.74 ± 0.16", "unit": "mg"}]}
{"compound": "C[C@H](CS)C(=O)N1CCC[C@H]1C(=O)O", "note": "[Captopril, reference compound]", "values": [{"measurement": "Hair Mass Percent Reduction", "setting": "[1]; Dose 10%, Vehicle A, topical", "result": "57 ± 5", "unit": "%"}, {"measurement": "Hair Mass Treated", "setting": "[1]; Dose 10%, Vehicle A, topical", "result": "1.49 ± 0.20", "unit": "mg"}, {"measurement": "Percent reduction in hair shaft cysteine", "setting": "[2]; hamster flank organ hairs", "result": 26, "unit": "%"}, {"measurement": "Formation of Cysteine mixed disulfide in-vitro", "setting": "[3]", "result": "YES"}, {"measurement": "Reduction of Cystine", "setting": "[4]", "result": "YES"}]}
{"compound": "N[C@@H](CS)C(=O)NCC(=O)O", "note": "[Cystenyl-glycine]", "values": [{"measurement": "Hair Mass Percent Reduction", "setting": "[1]; Dose 15%, Vehicle A, topical", "result": "55 ± 8", "unit": "%"}, {"measurement": "Hair Mass Treated", "setting": "[1]; Dose 15%, Vehicle A, topical", "result": "0.93 ± 0.18", "unit": "mg"}, {"measurement": "Reduction of Cystine", "setting": "[4]", "result": "YES"}]}
{"compound": "N[C@H](CS)C(=O)O", "note": "[D-Cysteine]", "values": [{"measurement": "Hair Mass Percent Reduction", "setting": "[1]; Dose 10%, Vehicle A, topical", "result": "60 ± 3", "unit": "%"}, {"measurement": "Hair Mass Treated", "setting": "[1]; Dose 10%, Vehicle A, topical", "result": "1.20 ± 0.17", "unit": "mg"}]}
{"compound": "CC(C)(SSC(C)(C)[C@@H](N)C(=O)O)[C@@H](N)C(=O)O", "note": "[D-Penicillamine disulfide]", "values": [{"measurement": "Hair Mass Percent Reduction", "setting": "[1]; Dose 15%, Vehicle A, topical", "result": "55 ± 4", "unit": "%"}, {"measurement": "Hair Mass Treated", "setting": "[1]; Dose 15%, Vehicle A, topical", "result": "1.09 ± 0.23", "unit": "mg"}]}
{"compound": "CC(C)(S)[C@@H](N)C(=O)O", "note": "[D-Penicillamine, reference compound]", "values": [{"measurement": "Hair Mass Percent Reduction", "setting": "[1]; Dose 15%, Vehicle A, topical", "result": "65 ± 5", "unit": "%"}, {"measurement": "Hair Mass Treated", "setting": "[1]; Dose 15%, Vehicle A, topical", "result": "0.57 ± 0.07", "unit": "mg"}, {"measurement": "Percent reduction in hair shaft cysteine", "setting": "[2]; hamster flank organ hairs", "result": 50, "unit": "%"}, {"measurement": "Formation of Cysteine mixed disulfide in-vitro", "setting": "[3]", "result": "YES"}, {"measurement": "Formation of Cysteine mixed disulfide in hair shaft", "setting": "[5]", "result": "YES"}]}
{"compound": "CCN(CC)C(=S)S", "note": "[Diethyldithiocarbamic acid]", "values": [{"measurement": "Hair Mass Percent Reduction", "setting": "[1]; Dose 15%, Vehicle A, topical", "result": "68 ± 7", "unit": "%"}, {"measurement": "Hair Mass Treated", "setting": "[1]; Dose 15%, Vehicle A, topical", "result": "0.65 ± 0.09", "unit": "mg"}, {"measurement": "Percent reduction in hair shaft cysteine", "setting": "[2]; hamster flank organ hairs", "result": 18, "unit": "%"}]}
{"compound": "O=S(=O)(O)CCO", "note": "[Isethionic acid]", "values": [{"measurement": "Hair Mass Percent Reduction", "setting": "[1]; Dose 15%, Vehicle A, topical", "result": "50 ± 7", "unit": "%"}, {"measurement": "Hair Mass Treated", "setting": "[1]; Dose 15%, Vehicle A, topical", "result": "1.45 ± 0.22", "unit": "mg"}]}
{"compound": "CCOC(=O)[C@@H](N)CS", "note": "[L-Cysteine ethyl ester]", "values": [{"measurement": "Hair Mass Percent Reduction", "setting": "[1]; Dose 20%, Vehicle A, topical", "result": "82 ± 3", "unit": "%"}, {"measurement": "Hair Mass Treated", "setting": "[1]; Dose 20%, Vehicle A, topical", "result": "0.49 ± 0.08", "unit": "mg"}]}
{"compound": "COC(=O)[C@@H](N)CS", "note": "[L-Cysteine methyl ester]", "values": [{"measurement": "Hair Mass Percent Reduction", "setting": "[1]; Dose 20%, Vehicle A, topical", "result": "86 ± 3", "unit": "%"}, {"measurement": "Hair Mass Treated", "setting": "[1]; Dose 20%, Vehicle A, topical", "result": "0.28 ± 0.07", "unit": "mg"}]}
{"compound": "CC(=O)N[C@@H](CS)C(=O)O", "note": "[N-Acetyl-L-Cysteine, reference compound]", "values": [{"measurement": "Hair Mass Percent Reduction", "setting": "[1]; Dose 15%, Vehicle A, topical", "result": "80 ± 4", "unit": "%"}, {"measurement": "Hair Mass Treated", "setting": "[1]; Dose 15%, Vehicle A, topical", "result": "0.39 ± 0.07", "unit": "mg"}]}
{"compound": "NCCSC[C@H](N)C(=O)O", "note": "[S-2-Aminoethyl-L-cysteine]", "values": [{"measurement": "Hair Mass Percent Reduction", "setting": "[1]; Dose 20%, Vehicle A, topical", "result": "50 ± 11", "unit": "%"}, {"measurement": "Hair Mass Treated", "setting": "[1]; Dose 20%, Vehicle A, topical", "result": "0.99 ± 0.20", "unit": "mg"}]}
{"compound": "O=C(O)c1cc(/N=N/c2ccc(S(=O)(=O)Nc3ccccn3)cc2)ccc1O", "note": "[Sulfasalazine, reference compound]", "values": [{"measurement": "Hair Mass Percent Reduction", "setting": "[1]; Dose 20%, Vehicle C, topical", "result": "61 ± 6", "unit": "%"}, {"measurement": "Hair Mass Treated", "setting": "[1]; Dose 20%, Vehicle C, topical", "result": "0.88 ± 0.14", "unit": "mg"}, {"measurement": "Percent reduction in hair shaft cysteine", "setting": "[2]; hamster flank organ hairs", "result": "(−2%)"}]}
{"compound": "O=C(O)c1ccccc1S", "note": "[Thiosalicylic acid]", "values": [{"measurement": "Hair Mass Percent Reduction", "setting": "[1]; hamster, in vivo", "result": "89 ± 2", "unit": "%"}, {"measurement": "Hair Mass Treated", "setting": "[1]; hamster, in vivo", "result": "0.18 ± 0.04", "unit": "mg"}, {"measurement": "Percent reduction in hair shaft cysteine", "setting": "[2]; hamster, in vivo", "result": 14, "unit": "%"}]}
{"compound": "O=C(O)[C@@H](S)[C@@H](S)C(=O)O", "note": "[meso-2,3,-Dimercaptosuccinic acid]", "values": [{"measurement": "Hair Mass Percent Reduction", "setting": "[1]; Dose 20%, Vehicle C, topical", "result": "50 ± 5", "unit": "%"}, {"measurement": "Hair Mass Treated", "setting": "[1]; Dose 20%, Vehicle C, topical", "result": "1.08 ± 0.16", "unit": "mg"}, {"measurement": "Percent reduction in hair shaft cysteine", "setting": "[2]; hamster flank organ hairs", "result": 22, "unit": "%"}, {"measurement": "Reduction of Cystine", "setting": "[4]", "result": "YES"}]}
